The molecules below were run against T1, pY705-STAT3 in PBMC (Homo sapiens, UniProt P40763) (assay: MSD-pSTAT-PBMC Assay (pSTAT3, IL-6 stimulated)). Conditions: PBMC, compound 3 hrs, then 10 ng/mL IL-6 for 10 min; Table 115; read-out: STAT3.
T1 construct: Cryopreserved Peripheral Blood Mononuclear Cells (PBMC) are from AllCells; host or cells: cryopreserved PBMC
T1 sequence (P40763 whole entry): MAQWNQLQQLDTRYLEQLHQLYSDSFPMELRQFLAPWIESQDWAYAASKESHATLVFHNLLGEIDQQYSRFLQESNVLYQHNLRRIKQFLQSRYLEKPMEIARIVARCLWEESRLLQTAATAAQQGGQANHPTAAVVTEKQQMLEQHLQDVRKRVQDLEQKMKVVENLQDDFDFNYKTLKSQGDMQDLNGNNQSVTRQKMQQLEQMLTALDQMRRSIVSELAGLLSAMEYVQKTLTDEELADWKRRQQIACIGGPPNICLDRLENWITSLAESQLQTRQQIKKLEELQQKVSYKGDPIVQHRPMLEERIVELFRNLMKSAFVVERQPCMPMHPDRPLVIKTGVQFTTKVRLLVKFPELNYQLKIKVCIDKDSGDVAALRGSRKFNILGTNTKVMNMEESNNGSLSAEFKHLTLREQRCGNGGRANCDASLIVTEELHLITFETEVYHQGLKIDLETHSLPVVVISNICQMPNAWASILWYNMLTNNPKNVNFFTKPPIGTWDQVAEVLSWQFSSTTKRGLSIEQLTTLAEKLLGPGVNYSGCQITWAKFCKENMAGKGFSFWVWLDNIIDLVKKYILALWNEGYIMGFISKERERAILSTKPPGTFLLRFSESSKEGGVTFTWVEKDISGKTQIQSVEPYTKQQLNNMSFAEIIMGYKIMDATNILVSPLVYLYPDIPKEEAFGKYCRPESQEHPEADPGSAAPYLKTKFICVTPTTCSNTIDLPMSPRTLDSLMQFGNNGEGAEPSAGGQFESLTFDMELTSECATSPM
Type: cell-based
Description: Cryopreserved Peripheral Blood Mononuclear Cells (PBMC) are from AllCells. Recombinant Human IL-4 and IL-6 are from Peprotech. Mouse monoclonal anti-STAT3 antibody, rabbit monoclonal anti-pY705-STAT3 antibody, rabbit monoclonal Anti-pY641-STAT6 antibody, and lysis buffer are from Cell Signaling Technology (CST). Mouse monoclonal anti-STAT6 antibody is from BioLegend. Assay plates, blocker, and anti-rabbit secondary antibody are from Meso Scale Discovery (MSD).
Cyropreserved PBMCs were thawed out and allowed to recover overnight in IMDM+10% heat-inactivated FBS prior to plating 50,000 (STAT3) or 25,000 (STAT6) cells per well in 96-well U-bottom tissue culture plates. Cells were treated with compound for 3 hrs, then stimulated with 10 ng/mL IL-6 (STAT3) or 1 ng/mL IL-4 (STAT6) for 10 min. Cells were then spun down and washed with ice-cold PBS prior to lysing the cell pellet with 1× lysis buffer (CST) with 1× HALT protease and phosphatase inhibitor cocktail (Thermo). Lysates were transferred to and incubated overnight at 4° C. with shaking in QuickPlex 96-well high bind assay plates (MSD) pre-coated overnight with 30 μL per well of 0.6 μg/mL mouse monoclonal anti-STAT3 antibody (STAT3) or 2 μg/mL mouse monoclonal anti-STAT6 antibody (STAT6) in 1× PBS, and pre-blocked for 1 hour with 3% Blocker-A (MSD). Captured protein in the assay plates were then washed and probed with 25 μL per well of […] rabbit monoclonal anti-pY705-STAT3 antibody (STAT3) or 0.18 μg/ml rabbit monoclonal Anti-pY641-STAT6 antibody (STAT6) in 1% Blocker-A for 1 hour at room temperature with shaking, then washed and probed with 25 ul per well of 1 ug/ml Sulfo-TAG Labeled Goat Anti-Rabbit Antibody (MSD) in 1% Blocker-A for 1 hour at room temperature with shaking. Assay plates were then washed and 150 μL of 1× Read Buffer-T (MSD) was added to each well prior to reading on an SQ120 MSD Plate Reader. Assay signal from each sample was subtracted by the signal from unstimulated control wells and normalized to DMSO control wells. IC50 values were calculated using Graph Pad Prism Dose-Response Nonlinear Regression with variable slope. For both pSTAT3 and pSTAT6 A=≤100 nM; B 100-1000 nM; C=>1000-3000 nM; D=>3 μM; and NT=Not Tested.
For CCCOC(=O)[C@H](C)N[P@@](=O)(Oc1ccccc1)[C@H](F)c1ccc2sc(C(=O)N[C@H]3CCC[C@H]4CC[C@@H](C(=O)N5CC(c6cccnc6)C5)N4C3=O)cc2c1 (single isomer, unassigned) [Compound 463], the IC50 was under 100 nM.
Molecule O=C(N[C@H]1CCC[C@H]2CC[C@@H](C(=O)N3CC(c4cccnc4)C3)N2C1=O)c1cc2cc(CP(=O)(N[C@@H](CCc3ccccc3)C(=O)OCc3ccccc3)Oc3ccccc3)ccc2s1 (stereo partly drawn) [Compound 401, benzyl (2S)-2-((((2-(((3S,6S,9aS)-5-oxo-3-(3-(pyridin-3-yl)azetidine-1-carbonyl)octahydro-1H-pyrrolo[1,2-a]azepin-6-yl)carbamoyl)benzo [b]thiophen-5-yl)methyl)(phenoxy)phosphoryl)amino)-4-phenylbutanoate] has an IC50 of over 3000 nM.
Molecule CC(C)CC(=O)SCCOP(=O)(OCOC(=O)O[C@H]1CCOC1)C(F)(F)c1ccc2sc(C(=O)N[C@H]3CCC[C@H]4CC[C@@H](C(=O)N5CC(c6ncccn6)C5)N4C3=O)cc2c1 (stereo partly drawn) [Compound 1099, S-(2-(((difluoro(2-(((3S,6S,9aS)-5-oxo-3-(3-(pyrimidin-2-yl)azetidine-1-carbonyl)octahydro-1H-pyrrolo[1,2-a]azepin-6-yl)carbamoyl)benzo [b]thiophen-5-yl)methyl)((((((S)-tetrahydrofuran-3-yl)oxy)carbonyl)oxy)methoxy)phosphoryl)oxy)ethyl) 3-methylbutanethioate] has an IC50 of under 100 nM.
With CCCOC(=O)[C@H](C)NP(=O)(Cc1ccc2sc(C(=O)N[C@H]3CC[C@@H](C)C[C@H]4CC[C@@H](C(=O)N5CC(c6cnccc6F)C5)N4C3=O)cc2c1)Oc1ccccc1 (stereo partly drawn) [Compound 988, propyl (((2-(((3S,6S,9R,10aR)-3-(3-(4-fluoropyridin-3-yl)azetidine-1-carbonyl)-9-methyl-5-oxodecahydropyrrolo [1,2-a]azocin-6-yl)carbamoyl)benzo [b]thiophen-5-yl)methyl)(phenoxy)phosphoryl)-L-alaninate] the IC50 was under 100 nM.
CCCOC(=O)[C@H](C)NP(=O)(Oc1ccccc1)[C@@H](F)c1ccc2sc(C(=O)N[C@H]3CCC[C@H]4CC[C@@H](C(=O)N5CC(c6cncnc6N6CCC6)C5)N4C3=O)cc2c1 (stereo partly shown) [Compound 1075] showed an IC50 of under 100 nM.
Molecule COc1ccncc1C1CN(C(=O)[C@@H]2CC[C@@H]3CCC[C@H](NC(=O)c4cc5cc([C@H](F)[P@](=O)(N[C@@H](C)C(=O)OCC(C)(C)C)Oc6ccccc6)ccc5s4)C(=O)N32)C1 (single isomer, unassigned) [Compound 960] has an IC50 of 100 to 1000 nM.
Molecule CCCOC(=O)[C@H](C)NP(=O)(Oc1ccccc1)C(F)c1ccc2sc(C(=O)N[C@H]3CCC[C@H]4CC[C@@H](C(=O)N5CC(c6cccc(C#N)n6)C5)N4C3=O)cc2c1 (stereo partly drawn) [Compound 266, propyl (((2-(((3S,6S,9aS)-3-(3-(6-cyanopyridin-2-yl)azetidine-1-carbonyl)-5-oxooctahydro-1H-pyrrolo[1,2-a]azepin-6-yl)carbamoyl)benzo [b]thiophen-5-yl)fluoromethyl) (phenoxy)phosphoryl)-L-alaninate] has an IC50 of under 100 nM.
Work on CCCOC(=O)[C@H](C)N[P@@](=O)(Oc1ccccc1)[C@@H](F)c1ccc2sc(C(=O)N[C@H]3CCC[C@H]4CC[C@@H](C(=O)N5CC(c6cnccc6C)C5)N4C3=O)cc2c1 (single isomer, unassigned) [Compound 1027] yielded an IC50 of under 100 nM.
For CCCCOC(=O)[C@H](C)NP(=O)(Oc1ccccc1)C(F)(F)c1ccc2sc(C(=O)N[C@H]3CCC[C@H]4CC[C@@H](C(=O)N5CC(c6cccnc6)C5)N4C3=O)cc2c1 (stereo partly drawn) [Compound 254, butyl ((difluoro(2-(((3S,6S,9aS)-5-oxo-3-(3-(pyridin-3-yl)azetidine-1-carbonyl)octahydro-1H-pyrrolo[1,2-a]azepin-6-yl)carbamoyl)benzo [b]thiophen-5-yl)methyl)(phenoxy)phosphoryl)-L-alaninate], the IC50 was 100 to 1000 nM.
For COc1ccncc1C1CN(C(=O)[C@@H]2CC[C@@H]3CCC[C@H](NC(=O)c4cc5cc([C@@H](F)[P@@](=O)(N[C@@H](C)C(=O)OC(C)C)Oc6ccccc6)ccc5s4)C(=O)N32)C1 (single isomer, unassigned) [Compound 1053], the IC50 was under 100 nM.
Work on CCCOC(=O)[C@H](C)NP(=O)(Oc1ccccc1)[C@H](F)c1ccc2sc(C(=O)N[C@H]3CCC[C@H]4CC[C@@H](C(=O)N5CC(c6cnccc6N6CCC6)C5)N4C3=O)cc2c1 (stereo partly drawn) [Compound 1024, propyl (((S)-(2-(((3S,6S,9aS)-3-(3-(4-(azetidin-1-yl)pyridin-3-yl)azetidine-1-carbonyl)-5-oxooctahydro-1H-pyrrolo[1,2-a]azepin-6-yl)carbamoyl)benzo [b]thiophen-5-yl)fluoromethyl) (phenoxy)phosphoryl)-L-alaninate] yielded an IC50 of 100 to 1000 nM.
CCCOC(=O)[C@H](C)N[P@](=O)(Oc1ccccc1)[C@H](F)c1ccc2sc(C(=O)N[C@H]3C[C@@H](C)C[C@H]4CC[C@@H](C(=O)N5CC(c6cnccc6C)C5)N4C3=O)cc2c1 (single isomer, unassigned) [Compound 1048] was tested, and the IC50 was under 100 nM.
CCCOC(=O)[C@H](C)NP(=O)(Cc1ccc2sc(C(=O)N[C@H]3CCC[C@H]4CC[C@@H](C(=O)N5CC(c6nccc(C#N)n6)C5)N4C3=O)cc2c1)Oc1ccccc1 (stereo partly drawn) [Compound 290, propyl (((2-(((3S,6S,9aS)-3-(3-(4-cyanopyrimidin-2-yl)azetidine-1-carbonyl)-5-oxooctahydro-1H-pyrrolo[1,2-a]azepin-6-yl)carbamoyl)benzo [b]thiophen-5-yl)methyl)(phenoxy)phosphoryl)-L-alaninate] showed an IC50 of 100 to 1000 nM.
CCCOC(=O)[C@H](C)NP(=O)(Cc1ccc2sc(C(=O)N[C@H]3CCC[C@H]4CC[C@@H](C(=O)N5CC(c6cnccc6N(C)C)C5)N4C3=O)cc2c1)OCC(F)(F)F (stereo partly drawn) [Compound 1025, propyl (((2-(((3S,6S,9aS)-3-(3-(4-(dimethylamino)pyridin-3-yl)azetidine-1-carbonyl)-5-oxooctahydro-1H-pyrrolo[1,2-a]azepin-6-yl)carbamoyl)benzo [b]thiophen-5-yl)methyl)(2,2,2-trifluoroethoxy)phosphoryl)-L-alaninate] gave an IC50 of under 100 nM.

Same assay, conditions: STAT3, PBMC, compound 3 hrs, then 10 ng/mL IL-6 for 10 min; Table 115
In the case of CCCOC(=O)[C@H](C)NP(=O)(Cc1ccc2sc(C(=O)N[C@H]3CCC[C@H]4CC[C@@H](C(=O)N5CC(c6cnc(C(F)F)cc6OC)C5)N4C3=O)cc2c1)Oc1ccccc1 (stereo partly drawn) [Compound 991, propyl (((2-(((3S,6S,9aS)-3-(3-(6-(difluoromethyl)-4-methoxypyridin-3-yl)azetidine-1-carbonyl)-5-oxooctahydro-1H-pyrrolo[1,2-a]azepin-6-yl)carbamoyl)benzo [b]thiophen-5-yl)methyl)(phenoxy)phosphoryl)-L-alaninate], the IC50 is reported as over 3000 nM.
With CCCOC(=O)[C@H](C)NP(=O)(Cc1ccc2sc(C(=O)N[C@H]3C[C@H](C)C[C@H]4CC[C@@H](C(=O)N5CC(c6cnccc6N(C)C)C5)N4C3=O)cc2c1)Oc1ccccc1 (stereo partly drawn) [Compound 1079, propyl (((2-(((3S,6S,8S,9aR)-3-(3-(4-(dimethylamino)pyridin-3-yl)azetidine-1-carbonyl)-8-methyl-5-oxooctahydro-1H-pyrrolo[1,2-a]azepin-6-yl)carbamoyl)benzo [b]thiophen-5-yl)methyl)(phenoxy)phosphoryl)-L-alaninate] the IC50 was under 100 nM.

Reference: US20250215029A1 (Recludix Pharma, Inc., priority 2022, published 2025)
